These results are taken from paper PMC9706024, “Chromenone Derivatives as Monoamine Oxidase Inhibitors from Marine-Derived MAR4 Clade Streptomyces sp. CNQ-031” (Journal of Microbiology and Biotechnology, 2021).

The target in assay [1] is T1, Recombinant human MAO-A (Homo sapiens, UniProt P21397).
T1 construct: purchased Sigma-Aldrich (USA)
T1 sequence (P21397 1-527): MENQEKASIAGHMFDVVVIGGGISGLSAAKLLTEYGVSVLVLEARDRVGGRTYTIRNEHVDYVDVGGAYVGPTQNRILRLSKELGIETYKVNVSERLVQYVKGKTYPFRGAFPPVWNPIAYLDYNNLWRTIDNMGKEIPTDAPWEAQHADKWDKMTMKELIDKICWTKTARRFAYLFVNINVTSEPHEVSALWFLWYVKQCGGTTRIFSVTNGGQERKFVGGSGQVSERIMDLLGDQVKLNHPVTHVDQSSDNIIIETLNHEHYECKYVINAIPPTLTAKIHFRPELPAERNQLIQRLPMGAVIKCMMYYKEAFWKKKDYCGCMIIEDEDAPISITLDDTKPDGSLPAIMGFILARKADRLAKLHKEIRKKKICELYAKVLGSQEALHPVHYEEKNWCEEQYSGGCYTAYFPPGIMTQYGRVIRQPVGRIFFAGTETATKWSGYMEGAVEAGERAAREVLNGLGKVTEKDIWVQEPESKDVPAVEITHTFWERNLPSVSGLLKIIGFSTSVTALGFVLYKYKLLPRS
Put plainly: Reversibility of MAO-A inhibition by dialysis. The assay is classed as biochemical. To be noted: for Reversibility of MAO-A inhibition: dialysis; for Relative activity of MAO-A, dialyzed (AD) / Relative activity of MAO-A, undialyzed (AU): inhibitor at twice the IC50, preincubated 30 min; for Relative activity of MAO-A, dialyzed (AD): after dialysis. As to the method: (§1) After the compounds or reference inhibitors were preincubated with MAOs for 30 min, residual activities for undialyzed and dialyzed samples were measured. The relative values for undialyzed (AU) and dialyzed (AD) activities were then calculated, and the reversibilities were determined by comparing the AU and AD values of the inhibitors with those of the references.
(§2) Results are the averages of experiments performed in duplicate.

The target in the next assay is T2, BACE-1 (Homo sapiens, UniProt P56817).
T2 construct: purchased Sigma-Aldrich (USA)
Briefly: BACE-1 Activity Detection Kit, fluorescence assay. The format is biochemical. The following applies: means ± SD of duplicate experiments, read-out: Residual activity at 10 µM (%) BACE-1.

Another assay concerns the target T3, BChE from equine serum (Equus caballus, UniProt P81908).
T3 construct: BChE from equine serum; purchased Sigma-Aldrich (USA); host or cells: equine serum
Briefly: biochemical. The following applies: means ± SD of duplicate experiments, read-out: Residual activity at 10 µM (%) BChE. As to the method:
(§3) All other chemicals were of reagent grade.
(§4) MAO-A and MAO-B inhibitory activities were determined using a continuous spectrophotometric method as described previously. […] AChE activities were assayed as described by Ellman et al., with slight modification. The inhibitory activities of AChE and BChE were measured after the enzyme was preincubated with inhibitors for 15 min and before adding DTNB and the substrate (ATCI and BTCI, respectively). […] Reaction rates were expressed as changes in absorbance per minute.

Assay [2] has as its target T1, Recombinant human MAO-A. Briefly: biochemical. The format is biochemical. The following applies: for remaining activity at 10 µM / IC50: means ± SD of duplicate experiments; for remaining activity at 10 µM: read-out: Residual activity at 10 µM (%) MAO-A; for SI (selectivity index): ratio of high IC50/low IC50 for MAO inhibition (compound 1: MAO-A versus MAO-B; compound 2: MAO-B versus MAO-A). As to the method: as §3, §4

Assay [3] addresses T4, human MAO-B (Homo sapiens, UniProt P27338).
T4 construct: purchased Sigma-Aldrich (USA)
T4 sequence (P27338 1-520): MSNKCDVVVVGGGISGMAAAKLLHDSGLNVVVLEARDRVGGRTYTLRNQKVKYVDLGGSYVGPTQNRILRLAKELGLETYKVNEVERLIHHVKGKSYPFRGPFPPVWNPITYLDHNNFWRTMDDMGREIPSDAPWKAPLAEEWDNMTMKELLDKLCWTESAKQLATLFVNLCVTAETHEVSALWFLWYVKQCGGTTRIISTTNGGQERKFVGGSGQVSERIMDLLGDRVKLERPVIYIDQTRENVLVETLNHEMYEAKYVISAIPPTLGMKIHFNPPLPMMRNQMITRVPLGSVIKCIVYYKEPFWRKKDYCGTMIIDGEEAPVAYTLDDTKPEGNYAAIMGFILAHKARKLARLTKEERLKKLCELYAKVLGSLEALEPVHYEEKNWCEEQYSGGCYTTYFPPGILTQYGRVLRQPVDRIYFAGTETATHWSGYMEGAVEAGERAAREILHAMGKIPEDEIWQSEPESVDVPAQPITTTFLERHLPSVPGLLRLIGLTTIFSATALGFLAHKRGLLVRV
Briefly: biochemical. The format is biochemical. To be noted: for remaining activity at 10 µM / IC50: means ± SD of duplicate experiments; for remaining activity at 10 µM: read-out: Residual activity at 10 µM (%) MAO-B. The procedure: as §3, §4

In assay [4] the target is T1, Recombinant human MAO-A. Briefly: MAO-A inhibition kinetics (Lineweaver-Burk and secondary plots). The assay is classed as biochemical. The following applies: for Mode of MAO-A inhibition: Lineweaver-Burk plots; for Ki: secondary plots of Lineweaver-Burk slopes, kynuramine 0.0075-0.12 mM. The procedure: (§5) Kinetic parameters, inhibition types, and […] (Ki) values of potent MAO-A and MAO-B inhibitors (i.e., compound 1 for MAO-A; compound 2 for MAO-A and MAO-B) were determined, as previously described. […]; Inhibitory patterns and Ki values were determined using Lineweaver-Burk plots and secondary plots of their slopes.
(§6) Modes of MAO-A inhibition by compound 1 and modes of MAO-A and MAO-B inhibition by compound 2 were investigated using Lineweaver-Burk plots. […].
(§7) Fig. 3 Lineweaver-Burk plots of monoamine oxidase (MAO)-A inhibition by compound 1 (A) and of MAOA and MAO-B inhibition by compound 2 (C and E for respective MOA isoforms) as well as their respective secondary plots, as slopes of Lineweaver-Burk plots vs. inhibitor concentrations (B, D, and F). […]. […] The initial velocity was expressed as an increase in absorbance per min.

Assay [5] addresses T5, AChE from Electrophorus electricus (Electrophorus electricus, UniProt O42275).
T5 construct: AChE from Electrophorus electricus; purchased Sigma-Aldrich (USA)
Put plainly: biochemical. The following applies: means ± SD of duplicate experiments; for remaining activity at 10 µM: read-out: Residual activity at 10 µM (%) AChE.

Assay [6] addresses T4, human MAO-B. Put plainly: Reversibility of MAO-B inhibition by dialysis. The format is biochemical. The procedure:
as §1, §2

Assay [7] deals with T4, human MAO-B. Briefly: MAO-B inhibition kinetics (Lineweaver-Burk and secondary plots). The format is biochemical. As to the method:
as §5, §6, §7

The subject of the next assay is MAO-B. To be noted: cited from earlier work.
Another assay has as its system MAO-A. The following applies: cited from earlier work.

Entries after “also recorded” stand apart in the source; their conditions may differ.

T3 sequence (P81908 whole entry): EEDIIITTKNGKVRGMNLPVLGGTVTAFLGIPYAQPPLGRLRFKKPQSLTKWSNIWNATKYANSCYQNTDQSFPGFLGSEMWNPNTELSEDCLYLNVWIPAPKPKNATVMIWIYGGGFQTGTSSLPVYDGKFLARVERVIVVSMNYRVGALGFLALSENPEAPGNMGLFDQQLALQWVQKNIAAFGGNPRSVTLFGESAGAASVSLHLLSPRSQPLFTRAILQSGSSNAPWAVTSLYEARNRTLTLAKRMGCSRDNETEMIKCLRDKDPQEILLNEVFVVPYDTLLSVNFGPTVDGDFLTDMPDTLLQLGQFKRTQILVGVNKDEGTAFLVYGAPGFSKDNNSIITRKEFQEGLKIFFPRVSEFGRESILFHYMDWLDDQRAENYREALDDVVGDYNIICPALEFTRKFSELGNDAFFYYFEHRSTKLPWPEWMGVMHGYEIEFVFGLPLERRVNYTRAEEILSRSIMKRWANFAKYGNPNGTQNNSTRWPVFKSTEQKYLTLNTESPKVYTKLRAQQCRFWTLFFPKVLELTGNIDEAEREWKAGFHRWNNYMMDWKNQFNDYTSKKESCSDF
T5 sequence (O42275 24-633): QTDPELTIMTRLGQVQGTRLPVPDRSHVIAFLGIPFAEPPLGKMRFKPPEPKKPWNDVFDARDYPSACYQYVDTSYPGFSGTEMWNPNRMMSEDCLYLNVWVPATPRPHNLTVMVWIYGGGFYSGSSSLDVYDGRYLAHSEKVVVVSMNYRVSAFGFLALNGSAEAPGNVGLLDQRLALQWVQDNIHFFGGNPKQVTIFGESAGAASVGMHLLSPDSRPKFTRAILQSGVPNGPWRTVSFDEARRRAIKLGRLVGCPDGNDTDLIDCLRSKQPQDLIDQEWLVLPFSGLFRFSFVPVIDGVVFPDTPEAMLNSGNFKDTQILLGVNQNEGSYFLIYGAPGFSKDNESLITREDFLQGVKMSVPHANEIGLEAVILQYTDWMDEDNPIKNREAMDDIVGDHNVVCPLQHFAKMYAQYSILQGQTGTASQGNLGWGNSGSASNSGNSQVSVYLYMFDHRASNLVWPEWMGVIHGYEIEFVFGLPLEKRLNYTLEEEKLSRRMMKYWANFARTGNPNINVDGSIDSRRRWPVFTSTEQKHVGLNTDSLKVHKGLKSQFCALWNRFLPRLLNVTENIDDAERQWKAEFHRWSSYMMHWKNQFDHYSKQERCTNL
T2 sequence (P56817 46-501, species assumed): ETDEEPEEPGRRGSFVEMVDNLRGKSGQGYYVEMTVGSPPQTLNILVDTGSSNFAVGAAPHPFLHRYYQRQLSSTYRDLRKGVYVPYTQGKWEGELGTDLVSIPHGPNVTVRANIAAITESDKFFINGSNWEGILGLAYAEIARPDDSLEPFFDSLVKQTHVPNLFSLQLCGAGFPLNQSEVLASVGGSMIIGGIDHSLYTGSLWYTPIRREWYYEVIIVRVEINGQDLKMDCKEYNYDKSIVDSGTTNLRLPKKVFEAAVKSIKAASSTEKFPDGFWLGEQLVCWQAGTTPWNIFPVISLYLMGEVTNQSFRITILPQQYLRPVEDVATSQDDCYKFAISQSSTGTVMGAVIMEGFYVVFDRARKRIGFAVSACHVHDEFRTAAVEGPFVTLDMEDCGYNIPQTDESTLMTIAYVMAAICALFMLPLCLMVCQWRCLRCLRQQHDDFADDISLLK

One may read the IC50 as the concentration that gives 50% inhibition. In general, Ki refers to a measure of affinity in units of concentration, obtained from inhibition or displacement. Turning to `CC(C)c1cc(=O)c2c(O)cc(O)cc2o1` [Compound 1, 5,7-dihydroxy-2-isopropyl-4H-chromen-4-one], at Recombinant human MAO-A [1], the “Reversibility of MAO-A inhibition” value was “reversible inhibitor”; the “Relative activity of MAO-A, dialyzed (AD)” value turned out to be 90.9%; the “Relative activity of MAO-A, undialyzed (AU)” value amounted to 35.5%. Further, on BACE-1, the remaining activity at 10 µM was determined as 85.8 ± 0.28%. Also, the remaining activity at 10 µM on BChE from equine serum is 80.7 ± 3.46%. For the same molecule, on Recombinant human MAO-A [2], the remaining activity at 10 µM was 25.4 ± 2.24%, the IC50 was determined as 2.7 ± 0.034 µM and the “SI (selectivity index)” value was 10.0. For the same molecule, at human MAO-B [3], the remaining activity at 10 µM stood at 71.5 ± 5.45% and the half-inhibitory concentration (IC50) is 27 ± 2.78 µM. Further, on Recombinant human MAO-A [4], the “Mode of MAO-A inhibition” value is “competitive inhibitor” and the Ki came to 0.94 ± 0.28 µM. In assay [5], the remaining activity at 10 µM was 70.5 ± 6.31% and the IC50 is 31.7 ± 2.39 µM.

Turning to `CCC(C)c1cc(=O)c2c(O)cc(O)cc2o1` (stereo not shown) [Compound 2, 5,7-dihydroxy-2-(1-methylpropyl)-4H-chromen-4-one], on Recombinant human MAO-A [1], the “Reversibility of MAO-A inhibition” value is listed as “reversible inhibitor”; the “Relative activity of MAO-A, dialyzed (AD)” value is 79.4%; the “Relative activity of MAO-A, undialyzed (AU)” value is reported as 35.6%. In addition, the “Reversibility of MAO-B inhibition” value on human MAO-B [6] (dialysis) is “reversible inhibitor”. Moreover, on human MAO-B [6] (inhibitor at twice the IC50, preincubated 30 min, after dialysis), the “Relative activity of MAO-B, dialyzed (AD)” value came out at 76.7%. Moreover, the “Relative activity of MAO-B, undialyzed (AU)” value at human MAO-B [6] (inhibitor at twice the IC50, preincubated 30 min, undialyzed) is recorded as 34.8%. Also, at BACE-1, the remaining activity at 10 µM was found to be 98.3 ± 0.27%. In addition, on BChE from equine serum, the remaining activity at 10 µM worked out at 96.4 ± 4.27%. Further, at Recombinant human MAO-A [2], the remaining activity at 10 µM was 37.8 ± 0.82%, the IC50 came to 6.92 ± 0.067 µM and the “SI (selectivity index)” value was determined as 2.02. In addition, at human MAO-B [3], the remaining activity at 10 µM came out at 34.4 ± 7.95% and the half-maximal inhibitory concentration (IC50) is 3.42 ± 1.47 µM. In addition, the “Mode of MAO-B inhibition” value on human MAO-B [7] (Lineweaver-Burk plots) is given as “competitive inhibitor”. The same molecule registered a Ki on human MAO-B [7] (secondary plots of Lineweaver-Burk slopes, benzylamine 0.03-0.6 mM) of 1.89 ± 0.014 µM. Further, on Recombinant human MAO-A [4], the “Mode of MAO-A inhibition” value is recorded as “competitive inhibitor” and the Ki is 3.57 ± 0.6 µM. The remaining activity at 10 µM in [5] is 88.3 ± 2.54%.

Consider `COc1cccc2nc3ccccc3nc12` [Compound 3, 1-methoxyphenazine], for which the remaining activity at 10 µM on BACE-1 amounted to 79.9 ± 0.73%; on BChE from equine serum it was 97 ± 2.72%; on Recombinant human MAO-A [2], 93.6 ± 4.11%; at human MAO-B [3], 96.9 ± 2.65%; in [5] it was 83 ± 8.24%. In addition, on Recombinant human MAO-A [2], the “Inhibitory activity against MAO-A (in words)” value is “did not inhibit; also recorded: little inhibitory activity”. For the same molecule, the “Inhibitory activity against MAO-B (in words)” value at human MAO-B [3] was “did not inhibit; also recorded: little inhibitory activity”.

For `CC1CC(=O)c2c(O)cccc2O1` (stereo not shown) [HMC, 5-hydroxy-2-methyl-chroman-4-one], the IC50 is 3.23 µM in the assay with MAO-B and 14 µM in the assay with MAO-A.

Turning to `O=c1oc2cc(O)ccc2c2ccc(O)cc12` [UroA], in the assay with MAO-A, the IC50 was 5.88 µM.

Take `O=c1oc2cc(O)ccc2c2ccccc12` [UroB]: the IC50 with MAO-A was 0.88 µM.

Turning to `O=c1oc2cc(O)ccc2c2cc(O)c(O)cc12` [Ur°C], the IC50 with MAO-A was 29.6 µM.

For `COc1cc(O)c2c(=O)oc3cc(O)cc(C)c3c2c1` [alternariol monomethyl ether], in the assay on MAO-A, the IC50 is 1.71 µM.

With `CN1C(=N)N(C)/C(=C/c2c[nH]c3ccccc23)C1=O` [aplysinopsin], in the assay on MAO-A, the IC50 is 0.0056 µM.
